Reference: patent publication US9340590B2 (priority 2011, dated 2016)
Like-named read-outs stand apart in the source and are kept apart here. Positions of bridges follow the written chain, without caps; N, C: chain ends. Residues, ends and D or L forms follow the SMILES beside them.

Assays:
hNav1.7 = hNav1.7 (Homo sapiens, UniProt Q15858); assay: cell-based; type: cell-based; details: read-out: IWQ Use Nav1.7
hNav1.3 = hNav1.3 (Homo sapiens, UniProt Q9NY46); assay: cell-based; details: IonWorks Quattro, use-dependent block, hNav1.3; read-out: IWQ Use Nav1.3
[1] = IonWorks Quattro, clamped to −110 mV, depolarized to −10 mV, 5 min after compound, n=2

Sequence of hNav1.7 (Q15858 whole entry, looked up): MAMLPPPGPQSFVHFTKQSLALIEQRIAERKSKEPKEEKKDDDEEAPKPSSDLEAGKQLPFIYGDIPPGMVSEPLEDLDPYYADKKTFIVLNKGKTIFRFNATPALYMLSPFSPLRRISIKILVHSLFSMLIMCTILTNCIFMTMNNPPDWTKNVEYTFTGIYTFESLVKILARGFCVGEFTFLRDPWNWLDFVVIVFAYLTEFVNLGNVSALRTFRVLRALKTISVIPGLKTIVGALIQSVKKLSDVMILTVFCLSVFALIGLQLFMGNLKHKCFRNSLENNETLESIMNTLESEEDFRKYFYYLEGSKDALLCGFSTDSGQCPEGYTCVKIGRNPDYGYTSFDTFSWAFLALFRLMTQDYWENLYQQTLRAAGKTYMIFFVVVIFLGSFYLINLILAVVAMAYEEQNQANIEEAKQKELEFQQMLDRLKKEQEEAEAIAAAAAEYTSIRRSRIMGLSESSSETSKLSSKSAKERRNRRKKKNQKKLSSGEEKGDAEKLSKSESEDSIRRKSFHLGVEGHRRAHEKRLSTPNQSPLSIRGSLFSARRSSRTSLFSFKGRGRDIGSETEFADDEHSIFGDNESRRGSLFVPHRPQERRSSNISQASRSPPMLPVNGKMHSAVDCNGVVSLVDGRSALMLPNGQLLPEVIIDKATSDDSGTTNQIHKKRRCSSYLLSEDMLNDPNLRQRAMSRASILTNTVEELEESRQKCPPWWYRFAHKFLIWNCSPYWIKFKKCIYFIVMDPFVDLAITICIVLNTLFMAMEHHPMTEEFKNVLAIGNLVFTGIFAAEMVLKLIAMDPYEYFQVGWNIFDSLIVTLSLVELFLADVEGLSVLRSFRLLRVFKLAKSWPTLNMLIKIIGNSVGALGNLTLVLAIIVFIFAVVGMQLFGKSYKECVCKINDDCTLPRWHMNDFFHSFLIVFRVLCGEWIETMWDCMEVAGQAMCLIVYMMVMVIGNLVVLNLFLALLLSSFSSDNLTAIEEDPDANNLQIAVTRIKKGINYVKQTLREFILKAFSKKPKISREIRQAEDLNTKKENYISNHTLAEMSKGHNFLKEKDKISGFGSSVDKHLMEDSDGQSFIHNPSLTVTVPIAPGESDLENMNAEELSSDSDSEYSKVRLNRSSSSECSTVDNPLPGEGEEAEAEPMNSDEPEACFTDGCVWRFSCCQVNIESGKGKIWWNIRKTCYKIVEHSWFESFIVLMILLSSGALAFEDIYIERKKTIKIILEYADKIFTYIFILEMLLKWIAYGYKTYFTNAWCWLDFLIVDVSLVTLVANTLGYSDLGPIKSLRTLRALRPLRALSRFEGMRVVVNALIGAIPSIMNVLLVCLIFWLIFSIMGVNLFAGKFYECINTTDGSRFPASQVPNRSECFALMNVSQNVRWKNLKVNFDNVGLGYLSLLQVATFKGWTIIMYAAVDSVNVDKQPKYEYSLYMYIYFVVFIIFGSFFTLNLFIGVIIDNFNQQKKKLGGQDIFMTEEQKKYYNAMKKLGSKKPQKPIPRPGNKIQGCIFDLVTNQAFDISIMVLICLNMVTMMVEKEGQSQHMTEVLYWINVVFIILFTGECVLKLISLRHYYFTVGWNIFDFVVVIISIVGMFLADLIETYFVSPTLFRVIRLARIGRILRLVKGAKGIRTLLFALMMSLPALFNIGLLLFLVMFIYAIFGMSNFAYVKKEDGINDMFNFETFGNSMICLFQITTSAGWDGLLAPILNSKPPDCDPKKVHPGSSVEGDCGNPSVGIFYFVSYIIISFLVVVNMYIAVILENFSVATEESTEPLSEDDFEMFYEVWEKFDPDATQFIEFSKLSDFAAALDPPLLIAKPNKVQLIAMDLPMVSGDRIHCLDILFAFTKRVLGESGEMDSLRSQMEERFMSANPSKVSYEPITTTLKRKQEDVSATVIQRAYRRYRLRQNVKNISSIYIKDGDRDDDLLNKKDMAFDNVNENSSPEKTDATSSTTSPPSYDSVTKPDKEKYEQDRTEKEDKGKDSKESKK
Sequence of hNav1.3 (Q9NY46 whole entry, looked up): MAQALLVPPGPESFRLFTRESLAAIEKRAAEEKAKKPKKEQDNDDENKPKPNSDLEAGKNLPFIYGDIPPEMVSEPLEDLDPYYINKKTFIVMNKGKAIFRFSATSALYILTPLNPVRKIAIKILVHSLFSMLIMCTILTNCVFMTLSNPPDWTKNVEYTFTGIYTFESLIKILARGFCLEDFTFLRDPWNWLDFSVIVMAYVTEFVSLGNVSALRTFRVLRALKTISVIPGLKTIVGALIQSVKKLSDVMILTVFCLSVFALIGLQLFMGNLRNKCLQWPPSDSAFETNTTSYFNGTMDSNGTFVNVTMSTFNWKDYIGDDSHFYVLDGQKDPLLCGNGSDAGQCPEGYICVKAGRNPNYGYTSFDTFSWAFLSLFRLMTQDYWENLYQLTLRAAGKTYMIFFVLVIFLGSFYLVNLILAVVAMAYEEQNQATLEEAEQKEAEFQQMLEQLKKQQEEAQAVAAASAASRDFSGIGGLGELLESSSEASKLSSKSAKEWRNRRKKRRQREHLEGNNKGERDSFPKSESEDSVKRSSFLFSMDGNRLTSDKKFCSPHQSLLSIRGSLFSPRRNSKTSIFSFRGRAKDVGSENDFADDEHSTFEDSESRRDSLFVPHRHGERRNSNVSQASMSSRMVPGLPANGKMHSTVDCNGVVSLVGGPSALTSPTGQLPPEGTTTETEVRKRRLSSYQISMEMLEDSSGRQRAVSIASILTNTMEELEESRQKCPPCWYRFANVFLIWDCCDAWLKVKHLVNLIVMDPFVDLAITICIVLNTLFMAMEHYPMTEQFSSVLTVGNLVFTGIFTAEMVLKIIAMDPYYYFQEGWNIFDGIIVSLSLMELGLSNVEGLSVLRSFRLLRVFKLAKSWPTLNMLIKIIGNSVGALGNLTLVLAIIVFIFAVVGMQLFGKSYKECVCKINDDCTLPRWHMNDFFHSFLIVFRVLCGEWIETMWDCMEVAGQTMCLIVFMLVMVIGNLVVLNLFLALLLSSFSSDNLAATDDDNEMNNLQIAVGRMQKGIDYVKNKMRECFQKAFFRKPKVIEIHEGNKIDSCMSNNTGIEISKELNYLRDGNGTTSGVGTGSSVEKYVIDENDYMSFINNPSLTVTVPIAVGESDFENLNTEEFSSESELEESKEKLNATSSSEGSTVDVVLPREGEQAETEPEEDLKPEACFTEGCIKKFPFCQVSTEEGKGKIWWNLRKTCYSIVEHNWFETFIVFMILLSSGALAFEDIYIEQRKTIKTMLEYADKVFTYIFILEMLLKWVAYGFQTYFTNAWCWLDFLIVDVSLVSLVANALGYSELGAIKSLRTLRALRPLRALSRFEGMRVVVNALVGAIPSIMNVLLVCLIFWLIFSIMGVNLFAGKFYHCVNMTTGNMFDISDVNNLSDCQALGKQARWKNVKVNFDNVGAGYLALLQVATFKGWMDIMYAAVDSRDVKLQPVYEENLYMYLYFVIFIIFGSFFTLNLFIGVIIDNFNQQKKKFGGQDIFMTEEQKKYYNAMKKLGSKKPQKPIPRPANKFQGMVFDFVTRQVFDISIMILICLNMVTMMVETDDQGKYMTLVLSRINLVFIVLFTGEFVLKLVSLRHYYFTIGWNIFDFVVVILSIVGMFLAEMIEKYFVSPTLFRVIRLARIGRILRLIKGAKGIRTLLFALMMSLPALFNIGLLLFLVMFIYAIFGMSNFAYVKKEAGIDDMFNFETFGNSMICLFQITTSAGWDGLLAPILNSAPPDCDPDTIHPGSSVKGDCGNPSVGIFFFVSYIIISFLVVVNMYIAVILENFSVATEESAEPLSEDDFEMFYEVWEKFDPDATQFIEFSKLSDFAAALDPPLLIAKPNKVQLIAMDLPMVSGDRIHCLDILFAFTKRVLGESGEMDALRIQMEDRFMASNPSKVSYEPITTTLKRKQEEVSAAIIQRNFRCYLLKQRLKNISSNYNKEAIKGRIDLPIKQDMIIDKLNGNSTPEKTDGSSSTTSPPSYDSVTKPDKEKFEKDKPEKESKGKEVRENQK

SMILES: CC[C@H](C)[C@@H]1NC(=O)[C@@H]2CSSC[C@@H]3NC(=O)[C@H](C(C)C)NC(=O)[C@H](CC(C)C)NC(=O)[C@H](CC(N)=O)NC(=O)[C@@H]4CCCN4C(=O)[C@H](CCCNC(=N)N)NC(=O)[C@H](CSSC[C@H](NC(=O)[C@@H](N)CCC(=O)O)C(=O)N[C@@H](CC(C)C)C(=O)NCC(=O)N[C@@H](Cc4ccccc4)C(=O)N[C@@H](CCSC)C(=O)N[C@@H](CCCNC(=N)N)C(=O)N[C@@H](CCCCN)C(=O)N2)NC(=O)[C@H](CSSC[C@@H](C(=O)N[C@@H](CCCCN)C(=O)N[C@@H](Cc2ccc(O)cc2)C(=O)N[C@H](C(=O)N[C@@H](Cc2ccccc2)C(N)=O)C(C)C)NC(=O)[C@H](Cc2c[nH]c4ccccc24)NC(=O)[C@H](CCCCN)NC(=O)[C@H](Cc2c[nH]cn2)NC(=O)[C@H]([C@@H](C)O)NC(=O)[C@H](CCCNC(=N)N)NC(=O)[C@H](CO)NC3=O)NC(=O)[C@H](CCCCN)NC(=O)[C@H](CC(=O)O)NC(=O)[C@H](CC(N)=O)NC(=O)[C@H](CC(=O)O)NC(=O)[C@@H]2CCCN2C1=O [SEQ ID NO: 18] (H-ECLGFMRKCIPDNDKCCRPNLVCSRTHKWCKYVF-NH2; disulfide 2-17, 9-23, 16-30)
- IC50 (hNav1.7; [1]): 220 nM

SMILES: CC[C@H](C)[C@@H]1NC(=O)[C@@H]2CSSC[C@@H]3NC(=O)[C@H](C(C)C)NC(=O)[C@H](CC(C)C)NC(=O)[C@H](CC(N)=O)NC(=O)[C@@H]4CCCN4C(=O)[C@H](CCCNC(=N)N)NC(=O)[C@H](CSSC[C@H](NC(=O)[C@@H](N)CC(=O)O)C(=O)N[C@@H](CCC(=O)O)C(=O)NCC(=O)N[C@@H](Cc4ccccc4)C(=O)N[C@@H](CCSC)C(=O)N[C@@H](CCCNC(=N)N)C(=O)N[C@@H](CCCCN)C(=O)N2)NC(=O)[C@H](CSSC[C@@H](C(=O)N[C@@H](CCCCN)C(=O)N[C@@H](Cc2ccc(O)cc2)C(=O)N[C@H](C(=O)N[C@@H](Cc2ccccc2)C(N)=O)C(C)C)NC(=O)[C@H](Cc2c[nH]c4ccccc24)NC(=O)[C@H](CCCCN)NC(=O)[C@H](Cc2c[nH]cn2)NC(=O)[C@H]([C@@H](C)O)NC(=O)[C@H](CCCNC(=N)N)NC(=O)[C@H](CO)NC3=O)NC(=O)[C@H](CCCCN)NC(=O)[C@H](CC(=O)O)NC(=O)[C@H](CC(N)=O)NC(=O)[C@H](CC(=O)O)NC(=O)[C@@H]2CCCN2C1=O [SEQ ID NO: 19] (H-DCEGFMRKCIPDNDKCCRPNLVCSRTHKWCKYVF-NH2; disulfide 2-17, 9-23, 16-30)
- IC50 (hNav1.7; [1]): 670 nM

SMILES: CC[C@H](C)[C@@H]1NC(=O)[C@@H]2CSSC[C@@H]3NC(=O)[C@H](C(C)C)NC(=O)[C@H](CC(C)C)NC(=O)[C@H](CC(N)=O)NC(=O)[C@@H]4CCCN4C(=O)[C@H](CCCNC(=N)N)NC(=O)[C@H](CSSC[C@H](NC(=O)[C@H](C)N)C(=O)N[C@@H](CC(C)C)C(=O)NCC(=O)N[C@@H](Cc4ccccc4)C(=O)N[C@@H](CCSC)C(=O)N[C@@H](CCCNC(=N)N)C(=O)N[C@@H](CCCCN)C(=O)N2)NC(=O)[C@H](CSSC[C@@H](C(=O)N[C@@H](CCCCN)C(=O)N[C@@H](Cc2ccc(O)cc2)C(=O)N[C@H](C(=O)N[C@@H](Cc2ccccc2)C(N)=O)C(C)C)NC(=O)[C@H](Cc2c[nH]c4ccccc24)NC(=O)[C@H](CCCCN)NC(=O)[C@H](Cc2c[nH]cn2)NC(=O)[C@H]([C@@H](C)O)NC(=O)[C@H](CCCNC(=N)N)NC(=O)[C@H](CO)NC3=O)NC(=O)[C@H](CCCCN)NC(=O)[C@H](CC(=O)O)NC(=O)[C@H](CC(N)=O)NC(=O)[C@H](CC(=O)O)NC(=O)[C@@H]2CCCN2C1=O [SEQ ID NO: 20] (H-ACLGFMRKCIPDNDKCCRPNLVCSRTHKWCKYVF-NH2; disulfide 2-17, 9-23, 16-30)
- IC50 (hNav1.7; [1]): 100 nM

SMILES: CC[C@H](C)[C@@H]1NC(=O)[C@@H]2CSSC[C@@H]3NC(=O)[C@H](C(C)C)NC(=O)[C@H](CC(C)C)NC(=O)[C@H](CC(N)=O)NC(=O)[C@@H]4CCCN4C(=O)[C@H](CCCNC(=N)N)NC(=O)[C@H](CSSC[C@H](NC(=O)[C@@H](N)CC(=O)O)C(=O)N[C@@H](CC(C)C)C(=O)N[C@@H](CCC(=O)O)C(=O)N[C@@H](Cc4ccccc4)C(=O)N[C@@H](CCSC)C(=O)N[C@@H](CCCNC(=N)N)C(=O)N[C@@H](CCCCN)C(=O)N2)NC(=O)[C@H](CSSC[C@@H](C(=O)N[C@@H](CCCCN)C(=O)N[C@@H](Cc2ccc(O)cc2)C(=O)N[C@H](C(=O)N[C@@H](Cc2ccccc2)C(N)=O)C(C)C)NC(=O)[C@H](Cc2c[nH]c4ccccc24)NC(=O)[C@H](CCCCN)NC(=O)[C@H](Cc2c[nH]cn2)NC(=O)[C@H]([C@@H](C)O)NC(=O)[C@H](CCCNC(=N)N)NC(=O)[C@H](CO)NC3=O)NC(=O)[C@H](CCCCN)NC(=O)[C@H](CC(=O)O)NC(=O)[C@H](CC(N)=O)NC(=O)[C@H](CC(=O)O)NC(=O)[C@@H]2CCCN2C1=O [SEQ ID NO: 24] (H-DCLEFMRKCIPDNDKCCRPNLVCSRTHKWCKYVF-NH2; disulfide 2-17, 9-23, 16-30)
- IC50 (hNav1.7; [1]): 1740 nM

SMILES: CC[C@H](C)[C@@H]1NC(=O)[C@@H]2CSSC[C@@H]3NC(=O)[C@H](C(C)C)NC(=O)[C@H](CC(C)C)NC(=O)[C@H](CC(N)=O)NC(=O)[C@@H]4CCCN4C(=O)[C@H](CCCNC(=N)N)NC(=O)[C@H](CSSC[C@H](NC(=O)[C@@H](N)CC(=O)O)C(=O)N[C@@H](CC(C)C)C(=O)NCC(=O)N[C@@H](Cc4ccccc4)C(=O)N[C@@H](CCSC)C(=O)N[C@@H](CCCNC(=N)N)C(=O)N[C@@H](CCCCN)C(=O)N2)NC(=O)[C@H](CSSC[C@@H](C(=O)N[C@@H](CCCCN)C(=O)N[C@@H](Cc2ccc(O)cc2)C(=O)N[C@@H](CCC(=O)O)C(=O)N[C@@H](Cc2ccccc2)C(N)=O)NC(=O)[C@H](Cc2c[nH]c4ccccc24)NC(=O)[C@H](CCCCN)NC(=O)[C@H](Cc2c[nH]cn2)NC(=O)[C@H]([C@@H](C)O)NC(=O)[C@H](CCCNC(=N)N)NC(=O)[C@H](CO)NC3=O)NC(=O)[C@H](CCCCN)NC(=O)[C@H](CC(=O)O)NC(=O)[C@H](CC(N)=O)NC(=O)[C@H](CC(=O)O)NC(=O)[C@@H]2CCCN2C1=O [SEQ ID NO: 33, [Glu33]GpTx-1] (H-DCLGFMRKCIPDNDKCCRPNLVCSRTHKWCKYEF-NH2; disulfide 2-17, 9-23, 16-30)
- IC50 (hNav1.7): 560 nM

SMILES: CC[C@H](C)[C@@H]1NC(=O)[C@@H]2CSSC[C@@H]3NC(=O)[C@H](C(C)C)NC(=O)[C@H](CC(C)C)NC(=O)[C@H](CC(N)=O)NC(=O)[C@@H]4CCCN4C(=O)[C@H](CCCNC(=N)N)NC(=O)[C@H](CSSC[C@H](NC(=O)[C@@H](N)CCCCN)C(=O)N[C@@H](CC(C)C)C(=O)NCC(=O)N[C@@H](Cc4ccccc4)C(=O)N[C@@H](CCSC)C(=O)N[C@@H](CCCNC(=N)N)C(=O)N[C@@H](CCCCN)C(=O)N2)NC(=O)[C@H](CSSC[C@@H](C(=O)N[C@@H](CCCCN)C(=O)N[C@@H](Cc2ccc(O)cc2)C(=O)N[C@H](C(=O)N[C@@H](Cc2ccccc2)C(N)=O)C(C)C)NC(=O)[C@H](Cc2c[nH]c4ccccc24)NC(=O)[C@H](CCCCN)NC(=O)[C@H](Cc2c[nH]cn2)NC(=O)[C@H]([C@@H](C)O)NC(=O)[C@H](CCCNC(=N)N)NC(=O)[C@H](CO)NC3=O)NC(=O)[C@H](CCCCN)NC(=O)[C@H](CC(=O)O)NC(=O)[C@H](CC(N)=O)NC(=O)[C@H](CC(=O)O)NC(=O)[C@@H]2CCCN2C1=O [SEQ ID NO: 37] (H-KCLGFMRKCIPDNDKCCRPNLVCSRTHKWCKYVF-NH2; disulfide 2-17, 9-23, 16-30)
- IC50 (hNav1.7; [1]): 150 nM

SMILES: CC[C@H](C)[C@@H]1NC(=O)[C@@H]2CSSC[C@@H]3NC(=O)[C@H](C(C)C)NC(=O)[C@H](CC(C)C)NC(=O)[C@H](CC(N)=O)NC(=O)[C@@H]4CCCN4C(=O)[C@H](CCCNC(=N)N)NC(=O)[C@H](CSSC[C@H](NC(=O)[C@@H](N)CC(=O)O)C(=O)N[C@@H](CC(C)C)C(=O)NCC(=O)N[C@@H](C)C(=O)N[C@@H](Cc4ccccc4)C(=O)N[C@@H](CCCNC(=N)N)C(=O)N[C@@H](CCCCN)C(=O)N2)NC(=O)[C@H](CSSC[C@@H](C(=O)N[C@@H](CCCCN)C(=O)N[C@@H](Cc2ccc(O)cc2)C(=O)N[C@H](C(=O)N[C@@H](Cc2ccccc2)C(N)=O)C(C)C)NC(=O)[C@H](Cc2c[nH]c4ccccc24)NC(=O)[C@H](CCCNC(=N)N)NC(=O)[C@H](Cc2cnc[nH]2)NC(=O)[C@H]([C@@H](C)O)NC(=O)[C@H](CCCNC(=N)N)NC(=O)[C@H](CO)NC3=O)NC(=O)[C@H](CCCCN)NC(=O)[C@H](CC(=O)O)NC(=O)[C@H](CC(N)=O)NC(=O)[C@H](CC(=O)O)NC(=O)[C@@H]2CCCN2C1=O [compound 809] (H-DCLGAFRKCIPDNDKCCRPNLVCSRTHRWCKYVF-NH2; disulfide 2-17, 9-23, 16-30)
- IC50 (hNav1.3): 300 nM

SMILES: CC[C@H](C)[C@@H]1NC(=O)[C@@H]2CSSC[C@@H]3NC(=O)[C@H](C(C)C)NC(=O)[C@H](CC(C)C)NC(=O)[C@H](CC(N)=O)NC(=O)[C@@H]4CCCN4C(=O)[C@H](CCCNC(=N)N)NC(=O)[C@H](CSSC[C@H](NC(=O)[C@@H](N)CC(=O)O)C(=O)N[C@@H](CC(C)C)C(=O)NCC(=O)N[C@@H](C)C(=O)N[C@@H](CC(C)C)C(=O)N[C@@H](CCCNC(=N)N)C(=O)N[C@@H](CCCCN)C(=O)N2)NC(=O)[C@H](CSSC[C@@H](C(=O)N[C@@H](CCCCN)C(=O)N[C@@H](Cc2ccc(O)cc2)C(=O)N[C@H](C(=O)N[C@@H](Cc2ccccc2)C(N)=O)C(C)C)NC(=O)[C@H](Cc2c[nH]c4ccccc24)NC(=O)[C@H](CCCNC(=N)N)NC(=O)[C@H](Cc2cnc[nH]2)NC(=O)[C@H]([C@@H](C)O)NC(=O)[C@H](CCCNC(=N)N)NC(=O)[C@H](CO)NC3=O)NC(=O)[C@H](CCCCN)NC(=O)[C@H](CC(=O)O)NC(=O)[C@H](CC(N)=O)NC(=O)[C@H](CC(=O)O)NC(=O)[C@@H]2CCCN2C1=O [compound 810] (H-DCLGALRKCIPDNDKCCRPNLVCSRTHRWCKYVF-NH2; disulfide 2-17, 9-23, 16-30)
- IC50 (hNav1.3): 200 nM
